# Source: PubChem BioAssay AID1963840 (Molecular Pharmacology Branch, DTP, NCI, 2024)
# Tested on: 695427-040-R-J1-PDC complex spheroid viability
# Test: Anticancer human tumor 695427-040-R-J1-PDC patient-derived colon adenocarcinoma cell line growth inhibition [POLQ]
# Conditions: for IC50: curve of first compound; for viability, T/C: stronger effect = lower value
# Summary of the method: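 Growth inhibition in 3D: complex spheroids (tumor PDC, HUVEC, MSC) treated with POLQ inhibitor combinations; where Cmax unknown, highest tested concentration 10 microM, except SN-38 at 1 microM.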
# [1] = second compound 0.0316 µM, first compound 0.0316 µM
# [2] = second compound 0.0316 µM, first compound 0.1 µM
# [3] = second compound 0.0316 µM, first compound 0.316 µM
# [4] = second compound 0.0316 µM, first compound 1 µM
# [5] = second compound 0.1 µM, first compound 0.0316 µM
# [6] = second compound 0.1 µM, first compound 0.1 µM
# [7] = second compound 0.1 µM, first compound 0.316 µM
# [8] = second compound 0.1 µM, first compound 1 µM
# [9] = second compound 0.316 µM, first compound 0.0316 µM
# [10] = second compound 0.316 µM, first compound 0.1 µM
# [11] = second compound 0.316 µM, first compound 0.316 µM
# [12] = second compound 0.316 µM, first compound 1 µM
# [13] = second compound 1 µM, first compound 0.0316 µM
# [14] = second compound 1 µM, first compound 0.1 µM
# [15] = second compound 1 µM, first compound 0.316 µM
# [16] = second compound 1 µM, first compound 1 µM
# [17] = second compound 3.16 µM, first compound 0.0316 µM
# [18] = second compound 3.16 µM, first compound 0.1 µM
# [19] = second compound 3.16 µM, first compound 0.316 µM
# [20] = second compound 3.16 µM, first compound 1 µM
# [21] = second compound 10 µM, first compound 0.0316 µM
# [22] = second compound 10 µM, first compound 0.1 µM
# [23] = second compound 10 µM, first compound 0.316 µM
# [24] = second compound 10 µM, first compound 1 µM
# 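Note: spheroids exposed to compounds for seven days.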
# 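Throughout, for viability, T/C: 100% = DMSO vehicle control viability.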
smiles,measurement,setting,value
C=CCn1c(=O)c2cnc(Nc3ccc(N4CCN(C)CC4)cc3)nc2n1-c1cccc(C(C)(C)O)n1 + Nc1ccc(C#CCN(C(=O)Cc2ncc(C(F)(F)F)cc2C(F)(F)F)c2ccc(F)cc2)nn1,IC50,second compound 0.0316 µM,> 1 µM
same,IC50,second compound 0.1 µM,> 1 µM
same,IC50,second compound 0.316 µM,> 1 µM
same,IC50,second compound 1 µM,> 1 µM
same,IC50,second compound 3.16 µM,> 1 µM
same,IC50,second compound 10 µM,> 1 µM
same,"viability, T/C","second compound 0.0316 µM, first compound 0.00316 µM",101%
same,"viability, T/C","second compound 0.0316 µM, first compound 0.01 µM",99.5%
same,"viability, T/C",[1],112%
same,"viability, T/C",[2],101%
same,"viability, T/C",[3],96.7%
same,"viability, T/C",[4],74.6%
same,"viability, T/C","second compound 0.1 µM, first compound 0.00316 µM",106%
same,"viability, T/C","second compound 0.1 µM, first compound 0.01 µM",101%
same,"viability, T/C",[5],94.8%
same,"viability, T/C",[6],96.9%
same,"viability, T/C",[7],99.9%
same,"viability, T/C",[8],78%
same,"viability, T/C","second compound 0.316 µM, first compound 0.00316 µM",113%
same,"viability, T/C","second compound 0.316 µM, first compound 0.01 µM",107%
same,"viability, T/C",[9],101%
same,"viability, T/C",[10],97.7%
same,"viability, T/C",[11],91.4%
same,"viability, T/C",[12],81%
same,"viability, T/C","second compound 1 µM, first compound 0.00316 µM",104%
same,"viability, T/C","second compound 1 µM, first compound 0.01 µM",96%
same,"viability, T/C",[13],96.4%
same,"viability, T/C",[14],94.2%
same,"viability, T/C",[15],93.8%
same,"viability, T/C",[16],71.7%
same,"viability, T/C","second compound 3.16 µM, first compound 0.00316 µM",98.6%
same,"viability, T/C","second compound 3.16 µM, first compound 0.01 µM",101%
same,"viability, T/C",[17],107%
same,"viability, T/C",[18],98.7%
same,"viability, T/C",[19],85.8%
same,"viability, T/C",[20],74.2%
same,"viability, T/C","second compound 10 µM, first compound 0.00316 µM",91.8%
same,"viability, T/C","second compound 10 µM, first compound 0.01 µM",93.7%
same,"viability, T/C",[21],85.8%
same,"viability, T/C",[22],99.4%
same,"viability, T/C",[23],81.8%
same,"viability, T/C",[24],65.3%
CCCS(=O)(=O)Nc1ccc(F)c(C(=O)c2c[nH]c3ncc(-c4ccc(Cl)cc4)cc23)c1F + Nc1ccc(C#CCN(C(=O)Cc2ncc(C(F)(F)F)cc2C(F)(F)F)c2ccc(F)cc2)nn1,IC50,second compound 0.0316 µM,> 10 µM
same,IC50,second compound 0.1 µM,> 10 µM
same,IC50,second compound 0.316 µM,> 10 µM
same,IC50,second compound 1 µM,> 10 µM
same,IC50,second compound 3.16 µM,> 10 µM
same,IC50,second compound 10 µM,> 10 µM
same,"viability, T/C",[1],101%
same,"viability, T/C",[2],100%
same,"viability, T/C",[3],102%
same,"viability, T/C",[4],111%
same,"viability, T/C","second compound 0.0316 µM, first compound 3.16 µM",117%
same,"viability, T/C","second compound 0.0316 µM, first compound 10 µM",88.8%
same,"viability, T/C",[5],112%
same,"viability, T/C",[6],108%
same,"viability, T/C",[7],105%
same,"viability, T/C",[8],106%
same,"viability, T/C","second compound 0.1 µM, first compound 3.16 µM",113%
same,"viability, T/C","second compound 0.1 µM, first compound 10 µM",87.1%
same,"viability, T/C",[9],100%
same,"viability, T/C",[10],108%
same,"viability, T/C",[11],107%
same,"viability, T/C",[12],102%
same,"viability, T/C","second compound 0.316 µM, first compound 3.16 µM",106%
same,"viability, T/C","second compound 0.316 µM, first compound 10 µM",85.4%
same,"viability, T/C",[13],103%
same,"viability, T/C",[14],99.9%
same,"viability, T/C",[15],107%
same,"viability, T/C",[16],102%
same,"viability, T/C","second compound 1 µM, first compound 3.16 µM",110%
same,"viability, T/C","second compound 1 µM, first compound 10 µM",81.7%
same,"viability, T/C",[17],109%
same,"viability, T/C",[18],100%
same,"viability, T/C",[19],103%
same,"viability, T/C",[20],107%
same,"viability, T/C","second compound 3.16 µM, first compound 3.16 µM",111%
same,"viability, T/C","second compound 3.16 µM, first compound 10 µM",88.8%
same,"viability, T/C",[21],95.1%
same,"viability, T/C",[22],92.8%
same,"viability, T/C",[23],110%
same,"viability, T/C",[24],95.3%
same,"viability, T/C","second compound 10 µM, first compound 3.16 µM",97.2%
same,"viability, T/C","second compound 10 µM, first compound 10 µM",85.7%
